The source of these data is patent US20100234419A1, “SUBSTITUTED 3-AMINOISOXAZOLOPYRIDINES AS KCNQ2/3 MODULATORS” (GRUNENTHAL GMBH, priority 2009, published 2010).

The experiment addresses T1, KCNQ2/3 channels (Homo sapiens, UniProt O43525+O43526).
T1 construct: expressed in transfected cells; host or cells: CHO-K1 cells, kept under selection antibiotics
The experiment can be described thus: Fluorescence assay using a voltage sensitive dye (fluorimetry). The format is cell-based. As to conditions: for KCNQ2/3 stimulation at 10 μM: Table 4 comparison experiments; for Emax at 10 µM: relative to retigabine = 100%, read-out: Fluorimetry % efficacy @ 10 μM (retigabine = 100%); for Emax at 10 µM / pEC50: CHO-K1 cells expressing KCNQ2/3; for activity towards the KCNQ2/3 receptor: nitrogen atom introduced into the phenyl ring of the benzoisoxazole structure. As for the experimental part:
[…] CHO-K1 cells expressing KCNQ2/3 channels are cultivated adherently at 37° C., 5% CO2 and 95% humidity in cell culture bottles (e.g. 80 cm^2 TC flasks, Nunc) with DMEM-high glucose (Sigma Aldrich, D7777) including 10% FCS (PAN Biotech, e.g. 3302-P270521) or alternatively MEM Alpha Medium (1×, liquid, Invitrogen, #22571), 10% fetal calf serum (FCS) (Invitrogen, #10270-106, heat-inactivated) and the necessary selection antibiotics.
Before being sown out for the measurements, the cells are washed with a 1×DPBS buffer without Ca^2+/Mg^2+ (e.g. Invitrogen, #14190-094) and detached from the bottom of the culture vessel by means of Accutase (PAA Laboratories, #L11-007) (incubation with Accutase for 15 min at 37° C.). The cell count then present is determined using a CASY™ cell counter (TCC model, Scharfe System) in order subsequently to apply, depending on the density optimization for the individual cell line, 20,000-30,000 cells/well/100 μl of the described nutrient medium to 96-well measuring plates of the Corning™ CelIBIND™ type (Flat Clear Bottom Black Polystyrene Microplates, #3340). Incubation is then carried out for one hour at room temperature, without gassing or adjusting the humidity, followed by incubation for 24 hours at 37° C., 5% CO2 and 95% humidity.
The voltage-sensitive fluorescent dye from the Membrane Potential Assay Kit (Red™ Bulk format part R8123 for FLIPR, MDS Analytical Technologies™) is prepared by dissolving the contents of a vessel Membrane Potential Assay Kit Red Component A in 200 ml of extracellular buffer (ES buffer, 120 mM NaCl, 1 mM KCl, 10 mM HEPES, 2 mM CaCl2, 2 mM MgCl2, 10 mM glucose; pH 7.4). After removal of the nutrient medium, the cells are washed with 200 μl of ES buffer, then covered with a layer of 100 μl of the dye solution prepared above and incubated for 45 min at room temperature with the exclusion of light.
The fluorescence measurements are carried out with a BMG Labtech FLUOstar™ BMG Labtech NOVOstar™ or BMG Labtech POLARstar™ instrument (525 nm excitation, 560 nm emission, Bottom Read mode). After incubation of the dye, 50 μl of the test substances in the desired concentrations, or 50 μl of ES buffer for control purposes, are introduced into separate cavities of the measuring plate and incubated for 30 min at room temperature while being shielded from light. The fluorescence intensity of the dye is then measured for 5 min and the fluorescence value F1 of each well is thus determined at a given, constant time. […] of a 100 mM KCl solution (final concentration […]) are then added to each well. The change in fluorescence is subsequently measured until all the relevant measured values have been obtained (mainly 5-30 min). At a given time after KCl application, a fluorescence value F2 is determined, in this case at the time of the fluorescence peak.
For calculation, the fluorescence intensity F2 is compared with the fluorescence intensity F1, and the agonistic activity of the target compound on the potassium channel is determined therefrom. F2 and F1 are calculated as follows: […]
Calculations of EC50 values are carried out with the aid of ‘Prism v4.0’ software (GraphPad Software™).

Usually pEC50 stands for the negative decadic logarithm of the EC50, by convention in mol/L. Read a low pEC50 as a high EC50.

pEC50: −log10 of the molar value.

For the compound `FC(F)(F)Sc1ccc(CNc2noc3ccccc23)cc1` [E1, reference compound], the “KCNQ2/3 stimulation at 10 μM” value came to 75%. For the compound `CC(Nc1noc2ncccc12)c1ccc(C(F)(F)F)cc1` (stereo not drawn) [Exemplary compound 1, N-(1-(4-(trifluoromethyl)phenyl)ethyl)-isoxazolo[5,4-b]pyridin-3-amine], the Emax at 10 µM stood at 43%. Consider `FC(F)(F)Sc1ccc(CNc2noc3ncccc23)cc1` [Exemplary compound 2, N-(4-(Trifluoromethylthio)benzyl)-isoxazolo[5,4-b]pyridin-3-amine], for which the “KCNQ2/3 stimulation at 10 μM” value was found to be 77%, the Emax at 10 µM was 77%, the negative logarithm of the EC50 (pEC50) is 5.77 and the “activity towards the KCNQ2/3 receptor” value is recorded as “still present”.

Turning to `Cc1cc(C)cc(CNc2noc3ncccc23)c1` [Exemplary compound 3, N-(3,5-dimethyl-benzyl)isoxazolo[5,4-b]pyridin-3-amine], the Emax at 10 µM worked out at 34%.

On to `Cc1cc(C)cc(C(C)Nc2noc3ncccc23)c1` (stereo not drawn) [Exemplary compound 4, N-(1-(3,5-dimethyl-phenyl)ethyl)-isoxazolo[5,4-b]pyridin-3-amine], for which the Emax at 10 µM turned out to be 65%.

For the compound `CC(Nc1noc2ncccc12)c1ccc(SC(F)(F)F)cc1` (stereo not drawn) [Exemplary compound 5, N-(1-(4-(trifluoromethylthio)phenyl)ethyl)-isoxazolo[5,4-b]pyridin-3-amine], the Emax at 10 µM was found to be 97%. On to `FC(F)(F)Sc1ccc(CNc2noc3cnccc23)cc1` [Exemplary compound 6, N-(4-(trifluoromethylthio)benzyl)-isoxazolo[5,4-c]pyridin-3-amine], for which the “KCNQ2/3 stimulation at 10 μM” value turned out to be 65%, the Emax at 10 µM was found to be 65% and the “activity towards the KCNQ2/3 receptor” value is reported as “still present”. As for `Cc1cc(C)cc(CNc2noc3cnccc23)c1` [Exemplary compound 7, N-(3,5-dimethyl-benzyl)isoxazolo[5,4-c]pyridin-3-amine], the Emax at 10 µM amounted to 29%. For the compound `FC(F)(F)Sc1ccc(CNc2noc3cccnc23)cc1` [Exemplary compound 9, N-(4-(trifluoromethylthio)benzyl)-isoxazolo[4,5-b]pyridin-3-amine], the “KCNQ2/3 stimulation at 10 μM” value is given as 86%, the Emax at 10 µM amounted to 86% and the “activity towards the KCNQ2/3 receptor” value is reported as “still present”.

With `Cc1cc(C)cc(C(C)Nc2noc3cccnc23)c1` (stereo not drawn) [Exemplary compound 10, N-(1-(3,5-dimethyl-phenyl)ethyl)-isoxazolo[4,5-b]pyridin-3-amine], the Emax at 10 µM amounted to 27%. As to `FC(F)(F)Sc1ccc(CNc2noc3ccncc23)cc1` [Exemplary compound 12, N-(4-(trifluoromethylthio)benzyl)-isoxazolo[4,5-c]pyridin-3-amine], the “KCNQ2/3 stimulation at 10 μM” value is 39%, the Emax at 10 µM amounted to 39% and the “activity towards the KCNQ2/3 receptor” value is given as “still present”. As to `CC(Nc1noc2cccnc12)c1ccc(SC(F)(F)F)cc1` (stereo not drawn) [Exemplary compound 13, N-(1-(4-(trifluoromethylthio)phenyl)-ethyl)isoxazolo[4,5-b]pyridin-3-amine], the Emax at 10 µM is 50%. Take `CC(Nc1noc2cnccc12)c1ccc(C(F)(F)F)cc1` (stereo not drawn) [Exemplary compound 14, N-(1-(4-(trifluoromethyl)phenyl)-ethyl)isoxazolo[5,4-c]pyridin-3-amine]: the Emax at 10 µM was determined as 78%.

Take `Cc1cc(C)cc(C(C)Nc2noc3cnccc23)c1` (stereo not drawn) [Exemplary compound 15, N-(1-(3,5-dimethyl-phenyl)ethyl)-isoxazolo[5,4-c]pyridin-3-amine]: the Emax at 10 µM was 73%. Regarding `Cc1cc(C)cc(C(C)Nc2noc3ccncc23)c1` (stereo not drawn) [Exemplary compound 16, N-(1-(3,5-dimethyl-phenyl)ethyl)-isoxazolo[4,5-c]pyridin-3-amine], the Emax at 10 µM turned out to be 15%.

On to `CC(Nc1noc2ccncc12)c1ccc(SC(F)(F)F)cc1` (stereo not drawn) [Exemplary compound 17, N-(1-(4-(trifluoromethylthio)phenyl)ethyl)-isoxazolo[4,5-c]pyridin-3-amine], for which the Emax at 10 µM worked out at 49% and the pEC50 was 6.05.

`Cc1cc(C)cc(C(C)Nc2noc3nc(C(F)(F)F)ccc23)c1` (stereo not drawn) [Exemplary compound 18, N-(1-(3,5-dimethylphenyl)ethyl)-6-(trifluoromethyl)isoxazolo[5,4-b]-pyridin-3-amine]: the Emax at 10 µM is 43%. Still for that read-out and setting: the value for `FC(F)(F)Sc1ccc(CNc2noc3nc(C(F)(F)F)ccc23)cc1` [Exemplary compound 19, N-(4-(trifluoromethylthio)benzyl)-6-trifluoromethyl-isoxazolo[5,4-b]pyridin-3-amine] was 41%.

On to `Cc1ccc2c(NCc3ccc(SC(F)(F)F)cc3)noc2n1` [Exemplary compound 20, 6-methyl-N-(4-(trifluoromethylthio)benzyl)-isoxazolo[5,4-b]pyridin-3-amine], for which the Emax at 10 µM stood at 49%. For the compound `Cc1cc(C)cc(C(C)Nc2noc3c(C(F)(F)F)nccc23)c1` (stereo not drawn) [Exemplary compound 21, N-(1-(3,5-dimethyl-phenyl)ethyl)-7-trifluoromethyl-isoxazolo[5,4-c]pyridin-3-amine], the Emax at 10 µM was found to be 39%.

Regarding `Cc1cc(C)cc(C(C)Nc2noc3nc(C)ccc23)c1` (stereo not drawn) [Exemplary compound 22, N-(1-(3,5-dimethylphenyl)ethyl)-6-methyl-isoxazolo[5,4-b]pyridin-3-amine], the Emax at 10 µM was 49% and the pEC50 is 6.64. Take `FC(F)(F)Sc1ccc(CNc2noc3c(C(F)(F)F)nccc23)cc1` [Exemplary compound 23, N-(4-(trifluoromethylthio)benzyl)-7-trifluoromethyl-isoxazolo[5,4-c]pyridin-3-amine]: the Emax at 10 µM was found to be 27%. In the case of `FC(F)(F)Sc1ccc(CNc2noc3nc4ccccc4cc23)cc1` [Exemplary compound 24, N-(4-(trifluoromethylthio)benzyl)-isoxazolo[5,4-b]quinolin-3-amine], the Emax at 10 µM worked out at 38% and the pEC50 is 6.39.

Take `FC(F)(F)Sc1ccc(CNc2noc3ccnc(Cl)c23)cc1` [Exemplary compound 25, 4-chloro-N-(4-(trifluoromethylthio)benzyl)-isoxazolo[4,5-c]pyridin-3-amine]: the Emax at 10 µM was determined as 19%.
